Measurements published in patent publication US20100137411A1, “RAS-MEDIATED EPIGENETIC SILENCING EFFECTORS AND USES THEREOF” (University of Massachusetts, priority 2007, published 2010).

Assays:
Format in all cases: cell-based, mouse
Fas = test: Immunoblot analysis of Fas re-expression in K-ras NIH 3T3 cells; settings: 10 μM 5-aza for 72 h
Description: (§1) Cell culture. NIH 3T3 (ATCC# CRL-1658) and K:Molv NIH 3T3 (ATCC# CRL-6361; referred to here as K-ras NIH 3T3) cells were maintained in DMEM supplemented with 10% FCS at 37° C. and 5% CO2. For 5-aza-2′-deoxycytidine (5-aza) treatment, K-ras NIH 3T3 cells were treated with 10 μM 5-aza for 72 h.
Immunoblot analysis. To prepare cell extracts, K-ras NIH 3T3 knockdown cell lines were harvested 7 days following retroviral transduction and puromycin selection (1.5 μg ml^−1) and lysed by boiling in 1× SDS sample buffer (Laemmli buffer) for 5 min. Proteins were resolved by 12% SDS-PAGE. Immunoblot analysis was performed using an anti-Fas (sc-716; Santa Cruz) or anti-p21 Ras (ab16795; Abcam) antibody to monitor expression of K-Ras (as a loading control), and an appropriate HRP-conjugated secondary antibody. Proteins were visualized using SuperSignal West Pico Luminol/Enhancer Solution (Pierce).

[1] = test system: Sfrp1, Par4/Pawr, Plagl1, H2-K1 and Lox; test: qRT-PCR expression of other epigenetically silenced genes in K-ras NIH 3T3 cells; settings: 10 μM 5-aza for 72 h
Description: as §1
(§2) Chromatin immunoprecipitation (ChIP) and methylated DNA immunoprecipitation (MeDIP). ChIP assays were performed using extracts prepared 7 days following retroviral transduction and puromycin selection. […] MeDIP and ChIP products were visualized by autoradiography, or analyzed by quantitative real-time PCR using Platinum SYBR Green qPCR SuperMix-UDG with Rox (Invitrogen). […] Quantitative real time RT-PCR. […] Reverse transcription was performed using SuperScript II Reverse Transcriptase (Invitrogen) as per the manufacturer's instructions, followed by quantitative real-time PCR as described above. […] Tumour dimensions were measured every 3 days from the time of appearance of the tumours, and tumour volume was calculated using the formula π/6×(length)×(width)^2. […]

Fas promoter [2] = test: Methylated DNA immunoprecipitation (MeDIP) of the Fas promoter; settings: K-ras NIH 3T3 cells, 10 μM 5-aza for 72 h
Text: To facilitate analysis of the methylation status of these three regions in the 28 K-ras NIH 3T3 KD cell lines we established and validated a rapid methylated DNA immunoprecipitation (MeDIP) assay, in which the antibody is directed against 5-methyl-cytosine (Weber, M. et al., Nat. Genet. 37, 853-862 (2005)). […] We then assessed the three hypermethylated Fas promoter regions in each of the 28 K-ras NIH 3T3 KD cell lines.
as §2

Fas promoter [3] = test: Bisulphite sequencing of the Fas promoter; settings: shRNA knockdown
Description: Bisulphite sequencing. Bisulphite modification was carried out essentially as described (Frommer, M. et al., Proc. Natl. Acad. Sci. USA 89, 1827-1831 (1992)) except that hydroquinone was used at a concentration of 125 mM during bisulphite treatment carried out in the dark and DNA was desalted on Qiaquick columns (Qiagen) after the bisulphite reaction. The regions analyzed were amplified by nested PCR. The first round comprised 24 cycles at 94° C. for 1 min, 48° C. for 1 min 30 s, and 72° C. for 1 min. One-tenth of the product was used as substrate for the second round of PCR comprising 28 cycles at 94° C. for 1 min, 48° C. for 1 min 30 s, 72° C. for 1 min.

Nc1ncn([C@H]2C[C@H](O)[C@@H](CO)O2)c(=O)n1 [5-aza, 5-aza-2′-deoxycytidine]
Fas expression (Fas): restored Fas expression
expression of Sfrp1, Par4/Pawr, Plagl1, H2-K1 and Lox (all five genes) [1]: re-expressed
hypermethylation of Fas promoter TSS/DS region (MeDIP) (Fas promoter [2]): not hypermethylated

B1: DNMT1: shRNA knocking down DNMT1; Open Biosystems V2MM_46797 or synthesized shRNA SEQ ID NO: 5 (nucleic acid)
chain: TGCTGTTGACAGTGAGCGCGCCCATCCTCAGGGACCATATTAGTGAAGCCACAGATGTAATATGGTCCCTGAGGATGGGCTTGCCTACTGCCTCGGA
hypermethylation of three Fas promoter regions (bisulphite sequencing) (Fas promoter [3]; H-ras transformed C3H10T1/2 cells): not
hypermethylation of TSS/DS region of the Fas promoter (bisulphite sequence analysis) (Fas promoter [3]; K-ras NIH 3T3 cells): no longer hypermethylated
